{"source": "patent US9359419B2", "about": "“Treatment of vascular complications of diabetes” (priority 2010, dated 2016)", "key": {"fresh human whole blood": {"test_system": "fresh human whole blood", "test": "Release of Interleukin-6 from fresh human whole blood (ELISA)", "type": "cell-based", "parameters": "Concentration of IL-6: unit of the concentration uncertain", "conditions": "for Concentration of IL-6: 24 hours, n = 5", "protocol": "It was the goal of this study to determine the pro-inflammatory signalling capacity of the AP301 peptide. Whole blood cultures were used and the secretion of interleukin-6 (IL-6), a very sensitive marker for pro-inflammatory stimulation, was quantified by ELISA.\n• Test system 25 ml of freshly taken heparinized blood from 5 healthy volunteers (HV) was used in the assays. […]\nWhole blood (WB) cultures were done by pipetting 1 ml of WB into wells of 24 well plates. In each experiment unstimulated and control-stimulated cultures were included.\nIf possible the substances and stimulants to be investigated were always added in an identical volume to each well of a given experiment, not greater than 10% of the total volume contained in a well. Unstimulated controls received PBS. Volume adjustments and dilutions for different treatments were also done with PBS.\nThe content of each well was mixed and the plates incubated at 37° C. and 5% CO2 for 24 hours. After incubation the content of each well was transferred to a fresh 1.5 ml microtube and centrifuged at 8000-9000×g for 15 minutes. The supernatant of each sample was transferred individually to two 1.5 ml microtubes and kept at −20° C. until use.\nInterleukin-6 was quantified by a specific ELISA (Human IL-6 ELISA Set, BD Biosciences, Cat. No. 555220) employing an anti-human IL-6 antibody as capture antibody, a biotinylated anti-human IL-6 detection antibody, avidin-horseradish peroxidase conjugate as enzyme reagent, and recombinant IL-6 as standard. Absorbance measurement was performed at 450 nm using the Packard FusionReader.\nThe results for each plate were stored and evaluated using the FusionDataAnalysis software. […]"}, "[1]": {"test_system": "U46619-contracted septal coronary arteries", "test": "Acetylcholine-induced vasorelaxation of septal coronary arteries from STZ-induced diabetic rats", "type": "in vivo, rat", "conditions": "TIP peptide 125 μg i.p. every three days for four weeks, vs STZ group, n=3", "from_the_text": "and tested for their ability to relax in response to progressive concentrations of acetylcholine. The vasorelaxant responses are expressed as percent of maximal control relaxation."}, "perfused rat hearts": {"test_system": "perfused rat hearts", "test": "Cardiac permeability by BSA-FITC perfusion (Langendorff method) of hearts from STZ-treated rats", "type": "in vivo", "conditions": "125 μg/rat over 4 wks i.p.", "protocol": "Following the same protocol as above, hearts from Ctrl, STZ-treated and TIP/STZ treated rats were isolated after 4 wks. The hearts were perfused using the Langendorff method with BSA-FITC (Di Napoli et al., Nitric Oxide 16 (2007), 228-236). Hearts were subsequently frozen in liquid nitrogen and slices were cut with a microtome. Subsequently, fluorescence was assessed in 4 slices of each heart and cumulative fluorescence responses were recorded."}, "STZ-treated rats": {"test_system": "STZ-treated rats", "conditions": "rat, in vivo", "method": "In this experiment, Male Sprague-Dawley rats (240 to 265 g, n=3) were divided into three groups: 1. Control rats receiving injections of vehicle alone, 2. rats rendered diabetic with STZ (50 mg/kg, intraperitoneally) and 3. […] Rats with blood levels >350 mg/dL were considered to be diabetic."}}, "note": "Entries after “also recorded” stand apart in the source; their conditions may differ."}
{"molecule": "C[C@@H]1NC(=O)CNC(=O)[C@H](CCC(=O)O)NC(=O)[C@@H]2CCCN2C(=O)[C@H]([C@@H](C)O)NC(=O)[C@H](CCC(=O)O)NC(=O)[C@H](CCCNC(=N)N)NC(=O)[C@H](CCC(N)=O)NC(=O)CNC(=O)[C@@H](N)CSSC[C@@H](C(=O)O)NC(=O)[C@H](Cc2ccc(O)cc2)NC(=O)[C@H](Cc2c[nH]c3ccccc23)NC(=O)[C@@H]2CCCN2C(=O)[C@H](CCCCN)NC(=O)[C@H](C)NC(=O)[C@H](CCC(=O)O)NC1=O", "note": "[AP301, (NH2) Cys-Gly-Gln-Arg-Glu-Thr-Pro-Glu-Gly-Ala-Glu-Ala-Lys-Pro-Trp-Tyr-Cys (COOH)]", "values": [{"measurement": "Concentration of IL-6", "setting": "fresh human whole blood; concentration 1 ng/ml", "result": "less than 0.5 pg/ml"}, {"measurement": "Concentration of IL-6", "setting": "fresh human whole blood; concentration 3 ng/ml", "result": "less than 0.5 pg/ml"}, {"measurement": "Concentration of IL-6", "setting": "fresh human whole blood; concentration 1 (unit uncertain)", "result": "less than 0.5 pg/ml"}, {"measurement": "Concentration of IL-6", "setting": "fresh human whole blood; concentration 10 (unit uncertain)", "result": "less than 0.5 pg/ml"}, {"measurement": "IL-6 secretion (pro-inflammatory response)", "setting": "fresh human whole blood; whole blood cultures from five healthy donors, all concentrations tested (10 μg/ml to 1 ng/ml)", "result": "did not induce any detectable level of IL-6 secretion; also recorded: did not induce a pro-inflammatory response"}, {"measurement": "acetylcholine-induced vasorelaxation response in septal coronary arteries", "setting": "[1]", "result": "significantly improved the vasorelaxation response"}, {"measurement": "cardiac permeability (Albumin-FITC incorporation)", "setting": "perfused rat hearts", "result": "significantly inhibits cardiac hyperpermeability"}, {"measurement": "cardiac permeability (Albumin-FITC incorporation)", "setting": "perfused rat hearts; listed as TIP peptide", "result": "inhibits STZ-associated cardiac permeability"}, {"measurement": "weight", "setting": "STZ-treated rats", "result": "increased weight loss"}]}
